The subject of data set [1] is Xanthomonas axonopodis pv. glycines. To be noted: for MIC, Xanthomonas axonopodis pv. glycines: serial 2-fold dilutions, 96-well, inoculum ~10^5 CFU/mL, highest 256 µg/mL, 48 h, OD600, NDA = Non-detectable activity; for 1/(log(MICs (mM)), Xanthomonas axonopodis pv. glycines): from MIC, 0 where no detectable activity. Here is the method: MICs were determined using the M7-A6 protocol from the Clinical Laboratory Standards Institute (CLSI). […] Initial bacterium inoculum of ∼10^5 colony forming units/mL were transferred, along with serial 2-fold dilutions of each peptide to 96-well plates and incubated for 12 h. […] For each peptide concentration, optical density (OD600) readings were subtracted from that of the growth medium and divided by the positive control (100% bacterial growth). Inhibitory assays for X. axonopodis pv. glycines were conducted by the same methodology with longer incubation time (48 h).

Data set [2] relates to Escherichia coli ATCC 25922. It counts as cell-based. To be noted: for MIC, Escherichia coli: Mueller-Hinton broth, serial 2-fold dilutions, inoculum ~10^5 CFU/mL, highest 256 µg/mL, 12 h, OD600, NDA = Non-detectable activity; for 1/(log(MICs (mM)), Escherichia coli): from MIC, 0 where no detectable activity. As for the experimental part:
(§1) MICs were determined using the M7-A6 protocol from the Clinical Laboratory Standards Institute (CLSI). Escherichia coli ATCC 25922, Pseudomonas aeruginosa ATCC 27853, Staphylococcus aureus ATCC 29313 were streaked in Mueller-Hinton agar, grown overnight at 37°C, transferred to Mueller-Hinton broth and incubated until readings at 600 nm reached the equivalent of 0.5 in the MacFarland scale. […]. Inhibitory assays for X. axonopodis pv. glycines were conducted by the same methodology with longer incubation time (48 h).

Data set [3] has as its system Pseudomonas aeruginosa ATCC 27853. It counts as cell-based. The settings on record: for MIC, Pseudomonas aeruginosa: Mueller-Hinton broth, serial 2-fold dilutions, inoculum ~10^5 CFU/mL, highest 256 µg/mL, 12 h, OD600, NDA = Non-detectable activity; for 1/(log(MICs (mM)), Pseudomonas aeruginosa): from MIC, 0 where no detectable activity. As for the experimental part: as §1

The test system of data set [4] is Staphylococcus aureus ATCC 29313. Format: cell-based. To be noted: for MIC, Staphylococcus aureus: Mueller-Hinton broth, serial 2-fold dilutions, inoculum ~10^5 CFU/mL, highest 256 µg/mL, 12 h, OD600, NDA = Non-detectable activity; for 1/(log(MICs (mM)), Staphylococcus aureus): from MIC, 0 where no detectable activity. As for the experimental part: as §1
Data set [5] is described as follows: Far UV circular dichroism of peptides in buffer (MRE, α-helix percentage). Format: physicochemical. To be noted: for [q]208 nm Buffer (Greenfield 69): Mean Residue Ellipticity at 208 nm; for [q]208 nm Buffer (Greenfield 69) / [q]222 nm Buffer (Chen 74): peptide in buffer, far UV CD; for [q]222 nm Buffer (Chen 74): Mean Residue Ellipticity at 222 nm; for % Helicity (Buffer) (Greenfield 69): from [q]208 nm, methodology of Greenfield et al. 1969; for % Helicity (Buffer) (Chen 74): from [q]222 nm, methodology of Chen et al. 1974. Here is the method: Far UV CD spectra were acquired for peptides at 20 µM in buffer and in the presence of DMPC or 2∶1 DMPC:DMPG LUVs at 1 mol% peptide/phospholipids. Peptides presented different degrees of secondary structures upon LUVs addition. […] Following the addition of LUVs, some peptides changed conformation resulting in spectral features characteristic of α-helical structures.
Experiments were conducted on a Jasco-J810 spectropolarimeter (Jasco International Co., Japan). Spectra were acquired at room temperature from 194 to 260 nm as an average of 4 readings using a 0.1 cm path length cell, data pitch of 0.2 nm and a response time of 0.5 s. Data Scans of buffer and 2 mM DMPC and 2∶1 DMPC:DMPG LUVs solutions were acquired and subtracted from each peptide data. Peptides were scanned at a concentration of 20 µM in buffer and then 100 fold excess of DMPC and 2∶1 DMPC:DMPG LUVs were added, resulting in a molar ratio of 0.01 peptide/phospholipids. […] Proximity to equilibrium was verified by scanning peptides added with twice the LUVs concentration, approximately 4 mM.
(CD spectra are sensitive to the conformation of chiral molecules.)

No end group written: not given here. Where only a bound is given, the exact number is not on record here.

Turning to “GKFHQIKKMFLSVGVKVTSLKRIQFGDF [A5LDU0(184–211)]”, in data set [1], the “MIC, Xanthomonas axonopodis pv. glycines” value came to 10 µM.
Consider “GLWSTIKQKGKE [DS 01 (1–12), fragment 1–12 of DS 01, Phyllomedusa oreades, reference compound]”, for which, in data set [1], the “1/(log(MICs (mM)), Xanthomonas axonopodis pv. glycines)” value is 0 and the “MIC, Xanthomonas axonopodis pv. glycines” value is listed as “NDA”. Further, in data set [2], the “MIC, Escherichia coli” value is reported as “NDA” and the “1/(log(MICs (mM)), Escherichia coli)” value was 0. In addition, in data set [3], the “MIC, Pseudomonas aeruginosa” value was “NDA” and the “1/(log(MICs (mM)), Pseudomonas aeruginosa)” value worked out at 0. Also, in data set [4], the “MIC, Staphylococcus aureus” value was “NDA” and the “1/(log(MICs (mM)), Staphylococcus aureus)” value stood at 0. In addition, in data set [5], the “[q]208 nm Buffer (Greenfield 69)” value was -9158, the “[q]222 nm Buffer (Chen 74)” value is given as -2137, the “% Helicity (Buffer) (Greenfield 69)” value is given as 17.8% and the “% Helicity (Buffer) (Chen 74)” value worked out at 6.1%.
Turning to “LVQRFHAYLHKFREAFMNVGAAAAVEGTKAA [A4HW34(187–217)]”, the “MIC, Xanthomonas axonopodis pv. glycines” value in data set [1] was 37 µM.
With “FKQFHFKDFNRAFGFMTRVALQAEKL [P61458(35–60)]”, the “MIC, Xanthomonas axonopodis pv. glycines” value in data set [1] amounted to 40 µM.
On to LAKRRVLTLLRQLRRVSPSS [Q7YRI0(9–28)], for which the “MIC, Xanthomonas axonopodis pv. glycines” value in data set [1] is listed as under 2 µM.
“GLKDMIKNLAKEAAVKLAGAVINKFSPQPQ [Nattererin-1, reference compound]”: in data set [1], the “MIC, Xanthomonas axonopodis pv. glycines” value is reported as under 1 µM.
Same read-out and setting: in the case of “FLSLIPHAINAVSTLVHHF [PS -2, reference compound]” it was 121 µM.
“IAAAQRITSGAADIAINWAGGLHHAKK [B0CZJ3(104–130), putative IAP; fragment of Histone deacetylase complex, Laccaria bicolor]”: in data set [1], the “1/(log(MICs (mM)), Xanthomonas axonopodis pv. glycines)” value is listed as 0 and the “MIC, Xanthomonas axonopodis pv. glycines” value is recorded as “NDA”. For the same substance, in data set [2], the “MIC, Escherichia coli” value is given as “NDA” and the “1/(log(MICs (mM)), Escherichia coli)” value worked out at 0. In data set [3], the “MIC, Pseudomonas aeruginosa” value is reported as “NDA” and the “1/(log(MICs (mM)), Pseudomonas aeruginosa)” value came out at 0. In addition, in data set [4], the “MIC, Staphylococcus aureus” value was “NDA” and the “1/(log(MICs (mM)), Staphylococcus aureus)” value was determined as 0. In addition, in data set [5], the “[q]208 nm Buffer (Greenfield 69)” value is -17825, the “[q]222 nm Buffer (Chen 74)” value is recorded as -7158, the “% Helicity (Buffer) (Greenfield 69)” value is on record as 47.7% and the “% Helicity (Buffer) (Chen 74)” value was 20.3%.
Turning to “GLNTLKKVIQGLHEVIKLVNNHA [Pseudin B, reference compound]”, the “MIC, Xanthomonas axonopodis pv. glycines” value in data set [1] is under 2 µM.
Regarding “KAGLQFPVGRIARFLK [B4FGE3(22–37), putative IAP; fragment of Histone H2A, Zea mays]”, in data set [1], the “1/(log(MICs (mM)), Xanthomonas axonopodis pv. glycines)” value worked out at 0 and the “MIC, Xanthomonas axonopodis pv. glycines” value is “NDA”. Besides, in data set [2], the “MIC, Escherichia coli” value is given as “NDA” and the “1/(log(MICs (mM)), Escherichia coli)” value came to 0. Moreover, in data set [3], the “MIC, Pseudomonas aeruginosa” value is on record as “NDA” and the “1/(log(MICs (mM)), Pseudomonas aeruginosa)” value was 0. Moreover, in data set [4], the “MIC, Staphylococcus aureus” value is “NDA” and the “1/(log(MICs (mM)), Staphylococcus aureus)” value turned out to be 0. For the same substance, in data set [5], the “[q]208 nm Buffer (Greenfield 69)” value is on record as -5213, the “[q]222 nm Buffer (Chen 74)” value is recorded as -1506, the “% Helicity (Buffer) (Greenfield 69)” value amounted to 4.2% and the “% Helicity (Buffer) (Chen 74)” value came to 4.3%.
For “GVLDILKGAAKDLAGHVATKVINKI [Syphaxin, reference compound]”, the “MIC, Xanthomonas axonopodis pv. glycines” value in data set [1] worked out at 25 µM.
Same read-out and setting: in the case of “GIGKFLHSAKKFGKAFVGEIMNS-NH2 [Magainin-2 amide, reference compound]” it was 13 µM.
Take “KLKKLLAGQKDGLLGQIAAMSDLYTKK [P94692(929–955), putative IAP; fragment of Pyruvate-ferredoxin oxidoreductase, Desulfovibrio africanus]”: in data set [1], the “1/(log(MICs (mM)), Xanthomonas axonopodis pv. glycines)” value is listed as 0 and the “MIC, Xanthomonas axonopodis pv. glycines” value is reported as “NDA”. In addition, in data set [2], the “MIC, Escherichia coli” value is recorded as “NDA” and the “1/(log(MICs (mM)), Escherichia coli)” value was determined as 0. Also, in data set [3], the “MIC, Pseudomonas aeruginosa” value is “NDA” and the “1/(log(MICs (mM)), Pseudomonas aeruginosa)” value is 0. Besides, in data set [4], the “MIC, Staphylococcus aureus” value is listed as “NDA” and the “1/(log(MICs (mM)), Staphylococcus aureus)” value is reported as 0. Further, in data set [5], the “[q]208 nm Buffer (Greenfield 69)” value was -6507, the “[q]222 nm Buffer (Chen 74)” value is -2066, the “% Helicity (Buffer) (Greenfield 69)” value came out at 8.6% and the “% Helicity (Buffer) (Chen 74)” value came to 5.9%.
For the substance “LRPAILVRVKGKGL [Hyposin HA-6, reference compound]”, in data set [1], the “MIC, Xanthomonas axonopodis pv. glycines” value came to 42 µM.
As for “GLWSTIKQKGKEAAIAAAKAAGQAALGAL [DS 01, reference compound]”, the “MIC, Xanthomonas axonopodis pv. glycines” value in data set [1] was under 1 µM.
“FINKAGKLQSQLRTTVVAAAAFLDAFQKVA [O43312(33–62)]”: the “MIC, Xanthomonas axonopodis pv. glycines” value in data set [1] worked out at 80 µM.
As for “FVTNSKRLAEGIEKGVGNSILIKVN [Q8KG25(327–351), putative IAP; fragment of Enolase 2, Chlorobium tepidum]”, in data set [1], the “1/(log(MICs (mM)), Xanthomonas axonopodis pv. glycines)” value is recorded as 0 and the “MIC, Xanthomonas axonopodis pv. glycines” value is recorded as “NDA”. Also, in data set [2], the “MIC, Escherichia coli” value was “NDA” and the “1/(log(MICs (mM)), Escherichia coli)” value is on record as 0. In data set [3], the “MIC, Pseudomonas aeruginosa” value is reported as “NDA” and the “1/(log(MICs (mM)), Pseudomonas aeruginosa)” value is given as 0. Also, in data set [4], the “MIC, Staphylococcus aureus” value was “NDA” and the “1/(log(MICs (mM)), Staphylococcus aureus)” value is 0. In data set [5], the “[q]208 nm Buffer (Greenfield 69)” value is on record as -7856, the “[q]222 nm Buffer (Chen 74)” value is reported as -6669, the “% Helicity (Buffer) (Greenfield 69)” value is reported as 13.3% and the “% Helicity (Buffer) (Chen 74)” value was 18.9%.
Regarding “VWTTAMEKSSAANFSMSRNQRRSSLHSL [gb|AAD22970.1|(120–148), putative IAP; fragment of Trehalase 1 GMTRE1, Glycine max]”, in data set [1], the “1/(log(MICs (mM)), Xanthomonas axonopodis pv. glycines)” value was 0 and the “MIC, Xanthomonas axonopodis pv. glycines” value is recorded as “NDA”. Moreover, in data set [2], the “MIC, Escherichia coli” value is recorded as “NDA” and the “1/(log(MICs (mM)), Escherichia coli)” value came out at 0. For the same substance, in data set [3], the “MIC, Pseudomonas aeruginosa” value was “NDA” and the “1/(log(MICs (mM)), Pseudomonas aeruginosa)” value worked out at 0. Moreover, in data set [4], the “MIC, Staphylococcus aureus” value is “NDA” and the “1/(log(MICs (mM)), Staphylococcus aureus)” value was found to be 0.
As for “GIGDILKNLAKAAGKAALHAVGESL [HSP-4, reference compound]”, in data set [1], the “MIC, Xanthomonas axonopodis pv. glycines” value was under 2 µM.
With “AAAAAAAIKMLMDLVNERIMALNKKAKK [Q6TV81(25–52)]”, the “MIC, Xanthomonas axonopodis pv. glycines” value in data set [1] is under 1 µM.
On to “GHRGALKDWVQAAGGAVAAFDFTTKG [Q8RW88(70–95), putative IAP; fragment of Alpha-amylase, Citrus reticulata]”, for which, in data set [1], the “1/(log(MICs (mM)), Xanthomonas axonopodis pv. glycines)” value turned out to be 0 and the “MIC, Xanthomonas axonopodis pv. glycines” value is “NDA”. Moreover, in data set [2], the “MIC, Escherichia coli” value is given as “NDA” and the “1/(log(MICs (mM)), Escherichia coli)” value came out at 0. Further, in data set [3], the “MIC, Pseudomonas aeruginosa” value is reported as “NDA” and the “1/(log(MICs (mM)), Pseudomonas aeruginosa)” value turned out to be 0. In data set [4], the “MIC, Staphylococcus aureus” value is on record as “NDA” and the “1/(log(MICs (mM)), Staphylococcus aureus)” value is 0. For the same substance, in data set [5], the “[q]208 nm Buffer (Greenfield 69)” value is -4005, the “[q]222 nm Buffer (Chen 74)” value is recorded as -6062, the “% Helicity (Buffer) (Greenfield 69)” value was 0.0168% and the “% Helicity (Buffer) (Chen 74)” value was 17.2%.
In the case of “FFFDTLKNLAGKVIGALT [Phes, reference compound]”, in data set [1], the “MIC, Xanthomonas axonopodis pv. glycines” value was determined as 33 µM.
Regarding “Gm0026x00785(77–103) (HKMDLHWYLRTLEEVVIRALQRFQFR)”, the “concentration that inhibited the in vitro growth of X. axonopodis pv. glycines” value in data set [1] (in vitro growth) came out at 10 µM.
